{"source": "EPA's ToxValDB 9.5 (doi:10.2903/j.efsa.2009.1354)", "key": {"Oncorhynchus mykiss": {"system": "Oncorhynchus mykiss", "conditions": "chronic/long-term; duration: 14 days; growth"}, "Daphnia magna": {"system": "Daphnia magna", "conditions": "chronic/long-term; duration: 21 days; reproduction"}, "Hypoaspis aculeifer": {"system": "Hypoaspis aculeifer", "conditions": "chronic/long-term; duration: 16 days; reproduction"}, "Phasianus sp.": {"system": "Phasianus sp.", "conditions": "oral, mortality; for LD50: acute, unspecified"}, "Aphidius rhopalosiphi": {"system": "Aphidius rhopalosiphi", "conditions": "acute; duration: 2 days; mortality"}, "Oryctolagus sp.": {"system": "Oryctolagus sp.", "conditions": "acute; oral; mortality"}, "Folsomia candida": {"system": "Folsomia candida", "conditions": "chronic/long-term; duration: 28 days"}, "Cucumis sativus": {"system": "Cucumis sativus", "conditions": "acute; duration: 21 days; biomass"}, "Coturnix japonica": {"system": "Coturnix japonica", "conditions": "acute, oral, mortality"}, "Colinus virginianus": {"system": "Colinus virginianus", "conditions": "for LC50 / LD50: acute, oral, mortality; for LC50: diet"}, "Lepomis macrochirus": {"system": "Lepomis macrochirus", "conditions": "acute; duration: 96 hours; mortality"}, "Anas platyrhynchos [1]": {"system": "Anas platyrhynchos", "conditions": "for LD50: acute, unspecified; for LD50 / LC50: oral, mortality; for LC50: short-term, feed"}, "Apis mellifera": {"system": "Apis mellifera", "conditions": "acute; duration: 48 hours; dermal; mortality"}, "Anas platyrhynchos [2]": {"system": "Anas platyrhynchos", "assay": "LC10; higher = less toxic", "conditions": "short-term; duration: 14 days; oral; feed; mortality"}}, "note": "Where “and” joins values, the source holds several entries; their conditions need not be identical. Identical values can stand only once."}
{"smiles": "CCCCN(CCCC)SN(C)C(=O)Oc1cccc2c1OC(C)(C)C2", "note": "[Carbosulfan]", "values": [{"measurement": "NOEC", "setting": "Oncorhynchus mykiss", "value": 0.004, "unit": "mg/L"}, {"measurement": "NOEC", "setting": "Daphnia magna", "value": 0.0032, "unit": "mg/L"}, {"measurement": "NOEC", "setting": "Hypoaspis aculeifer", "value": 20, "unit": "mg/kg"}, {"measurement": "LD50", "setting": "Phasianus sp.; F", "value": 6.2, "unit": "mg/kg-day"}, {"measurement": "LD50", "setting": "Phasianus sp.; M", "value": 4, "unit": "mg/kg-day"}, {"measurement": "LD50", "setting": "Phasianus sp.", "value": 20, "unit": "mg/kg-day"}, {"measurement": "LC50", "setting": "Phasianus sp.; short-term, feed", "value": 567, "unit": "mg/kg-day"}, {"measurement": "LEL", "setting": "Aphidius rhopalosiphi", "value": 120, "unit": "g/ha"}, {"measurement": "NOAEL", "setting": "Rattus norvegicus; acute, clinical chemistry", "value": 0.5, "unit": "mg/kg-day"}, {"measurement": "LD50", "setting": "Rattus norvegicus; acute, oral, mortality", "value": "< 5.6", "unit": "mg/kg-day"}, {"measurement": "NOAEL", "setting": "Rattus norvegicus; chronic", "value": 0.1, "unit": "mg/kg-day"}, {"measurement": "NOAEL", "setting": "Rattus norvegicus; reproduction developmental, reproduction", "value": 1.2, "unit": "mg/kg-day"}, {"measurement": "LD50", "setting": "Oryctolagus sp.", "value": 42.7, "unit": "mg/kg-day"}, {"measurement": "NOEC", "setting": "Folsomia candida", "value": 0.3, "unit": "mg/kg"}, {"measurement": "LEL", "setting": "Cucumis sativus", "value": 1500, "unit": "g/ha"}, {"measurement": "LD50", "setting": "Coturnix japonica; F", "value": 3.5, "unit": "mg/kg-day"}, {"measurement": "LD50", "setting": "Coturnix japonica; M", "value": 4.9, "unit": "mg/kg-day"}, {"measurement": "LC50", "setting": "Colinus virginianus; duration: 5 days", "value": 114, "unit": "mg/kg-day"}, {"measurement": "LC50", "setting": "Colinus virginianus; duration: 7 days", "value": 20.8, "unit": "mg/kg-day"}, {"measurement": "LC50", "setting": "Colinus virginianus; duration: 14 days", "value": 15.8, "unit": "mg/kg-day"}, {"measurement": "LD50", "setting": "Colinus virginianus; M/F", "value": 8, "unit": "mg/kg-day"}, {"measurement": "LC50", "setting": "Colinus virginianus", "value": 239, "unit": "mg/kg-day"}, {"measurement": "LD50", "setting": "Colinus virginianus", "value": 82, "unit": "mg/kg-day"}, {"measurement": "NOEL", "setting": "Colinus virginianus; reproduction developmental", "value": 10.8, "unit": "mg/kg-day"}, {"measurement": "LC50", "setting": "Lepomis macrochirus", "value": 0.015, "unit": "mg/L"}, {"measurement": "LD50", "setting": "Anas platyrhynchos [1]; F", "value": 0.86, "unit": "mg/kg-day"}, {"measurement": "LD50", "setting": "Anas platyrhynchos [1]; M", "value": 0.71, "unit": "mg/kg-day"}, {"measurement": "NOEL", "setting": "Anas platyrhynchos [1]; reproductive", "value": 2.5, "unit": "mg/kg-day"}, {"measurement": "LC50", "setting": "Anas platyrhynchos [1]; duration: 5 days", "value": "10 mg/kg-day and 17 mg/kg-day"}, {"measurement": "LC50", "setting": "Anas platyrhynchos [1]; duration: 14 days", "value": 1.6, "unit": "mg/kg-day"}, {"measurement": "LC50", "setting": "Anas platyrhynchos [1]", "value": 3.99, "unit": "mg/kg-day"}, {"measurement": "LD50", "setting": "Apis mellifera", "value": 0.18, "unit": "µg/piece"}, {"measurement": "LC10", "setting": "Anas platyrhynchos [2]", "value": 0.64, "unit": "mg/kg-day"}]}
